Laboratory results reported in patent US10233178B2, “Arylcyclopropylamine based demethylase inhibitors of LSD1 and their medical use” (priority 2010, dated 2019).

Columns and labels:
MAO-B = MAO-B (Homo sapiens (Human), UniProt P27338); assay: biochemical
Description: For MAO-B, the protein was kept between 1.8 and 3.6 ng/ul (Sigma M7441) and kynuramine (Sigma) at 50 uM was used as substrate.

MAO-A = MAO-A (Homo sapiens (Human), UniProt P21397); assay: biochemical
MAO-A, sequence (P21397 whole entry): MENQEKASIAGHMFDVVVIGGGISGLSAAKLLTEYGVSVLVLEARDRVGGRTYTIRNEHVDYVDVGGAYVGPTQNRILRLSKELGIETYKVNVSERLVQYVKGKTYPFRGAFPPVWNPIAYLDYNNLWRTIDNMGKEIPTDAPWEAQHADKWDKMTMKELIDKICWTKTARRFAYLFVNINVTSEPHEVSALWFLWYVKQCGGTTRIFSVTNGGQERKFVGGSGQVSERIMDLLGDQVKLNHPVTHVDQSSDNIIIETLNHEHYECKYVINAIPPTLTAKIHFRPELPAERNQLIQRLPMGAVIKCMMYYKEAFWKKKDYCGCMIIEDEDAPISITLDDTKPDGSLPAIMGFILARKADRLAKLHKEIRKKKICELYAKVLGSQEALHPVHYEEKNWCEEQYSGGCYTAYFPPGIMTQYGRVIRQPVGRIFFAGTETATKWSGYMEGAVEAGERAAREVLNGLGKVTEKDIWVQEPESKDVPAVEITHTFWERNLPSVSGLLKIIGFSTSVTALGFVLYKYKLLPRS

MAO-B, sequence (P27338 whole entry): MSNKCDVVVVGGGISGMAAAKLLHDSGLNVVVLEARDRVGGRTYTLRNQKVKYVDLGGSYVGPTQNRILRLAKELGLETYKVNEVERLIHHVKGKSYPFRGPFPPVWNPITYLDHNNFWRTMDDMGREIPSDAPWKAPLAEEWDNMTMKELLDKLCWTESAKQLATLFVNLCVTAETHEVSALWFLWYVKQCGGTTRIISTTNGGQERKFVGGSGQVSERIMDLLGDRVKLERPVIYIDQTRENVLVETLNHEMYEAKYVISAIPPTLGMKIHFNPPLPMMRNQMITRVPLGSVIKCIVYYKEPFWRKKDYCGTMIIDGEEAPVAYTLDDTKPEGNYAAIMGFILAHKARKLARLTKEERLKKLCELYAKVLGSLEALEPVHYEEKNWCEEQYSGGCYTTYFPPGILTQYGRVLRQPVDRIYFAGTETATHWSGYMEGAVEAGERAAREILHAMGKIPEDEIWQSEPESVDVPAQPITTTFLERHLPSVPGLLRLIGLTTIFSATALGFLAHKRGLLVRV

kinact/KI (MAO-B): 7460 M⁻¹ s⁻¹
kinact/KI (MAO-A): 62 M⁻¹ s⁻¹
SMILES: C#CCN[C@@H]1CCc2ccccc21 [Rasagiline]
